How the values were obtained:
[1] = target: T1, Bifunctional epoxide hydrolase 2 (Mus musculus, UniProt P34914); experiment: Inhibition of recombinant mouse soluble epoxide hydrolase using PHOME as substrate assessed as 6-methoxynaphthaldehyde product formation preincubated with compound for 10 mins followed by substrate addition and measured by fluorescence based analysis
T1 sequence (P34914 whole entry): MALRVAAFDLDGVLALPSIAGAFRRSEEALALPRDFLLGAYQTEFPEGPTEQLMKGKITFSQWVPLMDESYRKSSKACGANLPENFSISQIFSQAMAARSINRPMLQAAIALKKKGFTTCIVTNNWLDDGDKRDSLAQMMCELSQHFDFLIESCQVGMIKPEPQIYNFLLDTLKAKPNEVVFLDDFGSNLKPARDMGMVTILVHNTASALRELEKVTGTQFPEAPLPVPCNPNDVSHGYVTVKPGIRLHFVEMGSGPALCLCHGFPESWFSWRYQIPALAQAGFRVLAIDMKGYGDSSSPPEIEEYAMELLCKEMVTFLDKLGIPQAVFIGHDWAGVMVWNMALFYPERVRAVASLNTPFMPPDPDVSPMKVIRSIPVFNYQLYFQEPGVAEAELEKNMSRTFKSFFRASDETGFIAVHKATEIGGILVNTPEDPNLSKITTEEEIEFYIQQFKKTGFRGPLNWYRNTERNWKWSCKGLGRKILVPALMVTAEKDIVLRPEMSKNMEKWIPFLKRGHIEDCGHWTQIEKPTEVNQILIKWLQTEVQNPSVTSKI

[2] = target: T2, Bifunctional epoxide hydrolase 2 (Homo sapiens, UniProt P34913); experiment: Inhibition of recombinant human soluble epoxide hydrolase using PHOME as substrate assessed as 6-methoxynaphthaldehyde product formation preincubated with compound for 10 mins followed by substrate addition and measured by fluorescence based analysis
T2 sequence (P34913 whole entry): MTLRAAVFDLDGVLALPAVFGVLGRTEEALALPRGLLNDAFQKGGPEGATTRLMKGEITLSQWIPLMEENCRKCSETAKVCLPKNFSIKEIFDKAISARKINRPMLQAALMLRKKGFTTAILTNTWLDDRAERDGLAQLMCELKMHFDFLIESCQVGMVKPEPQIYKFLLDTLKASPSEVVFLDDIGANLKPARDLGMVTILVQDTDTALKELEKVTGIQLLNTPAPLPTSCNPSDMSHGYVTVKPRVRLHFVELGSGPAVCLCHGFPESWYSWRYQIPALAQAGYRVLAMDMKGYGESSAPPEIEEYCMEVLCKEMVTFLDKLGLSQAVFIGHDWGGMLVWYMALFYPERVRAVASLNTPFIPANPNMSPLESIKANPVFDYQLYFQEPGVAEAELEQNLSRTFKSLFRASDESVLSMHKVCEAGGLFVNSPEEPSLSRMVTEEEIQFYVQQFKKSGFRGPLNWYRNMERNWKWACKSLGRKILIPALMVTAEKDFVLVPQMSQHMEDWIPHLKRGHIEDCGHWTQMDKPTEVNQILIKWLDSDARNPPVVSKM

[3] = Metabolic stability in human liver microsomes assessed as half-life measured upto 60 mins in the presence of NADPH generating system by HPLC analysis; format: ADME, Microsome; details: 1 h
[4] = Metabolic stability in Sprague-Dawley rat liver microsomes assessed as half-life measured upto 60 mins in the presence of NADPH generating system by HPLC analysis; format: ADME, Microsome; details: 1 h
[5] = Protein binding in Sprague-Dawley rat plasma by equilibrium dialysis; format: ADME, cell-free
[6] = Microsomal stability in human liver microsomes assessed as mean compound concentration measured after 10 mins in the presence of NADPH-generating system by HPLC analysis (Rvb= 100 ug/ml); format: ADME, Microsome
[7] = Microsomal stability in human liver microsomes assessed as mean compound concentration measured after 30 mins in the presence of NADPH-generating system by HPLC analysis (Rvb= 100 ug/ml); format: ADME, Microsome; details: 0.5 h
[8] = Microsomal stability in human liver microsomes assessed as mean compound concentration measured after 60 mins in the presence of NADPH-generating system by HPLC analysis (Rvb= 100 ug/ml); format: ADME, Microsome; details: 1 h
[9] = Microsomal stability in Sprague-Dawley rat liver microsomes assessed as mean compound concentration measured after 10 mins in the presence of NADPH-generating system by HPLC analysis (Rvb= 100 ug/ml); format: ADME, Microsome
[10] = Microsomal stability in Sprague-Dawley rat liver microsomes assessed as mean compound concentration measured after 30 mins in the presence of NADPH-generating system by HPLC analysis (Rvb= 100 ug/ml); format: ADME, Microsome; details: 0.5 h
[11] = Microsomal stability in Sprague-Dawley rat liver microsomes assessed as mean compound concentration measured after 60 mins in the presence of NADPH-generating system by HPLC analysis (Rvb= 100 ug/ml); format: ADME, Microsome; details: 1 h
[12] = Tmax in Sprague-Dawley rat at 10 mg/kg, iv administered as single dose and measured upto 8 hrs by HPLC analysis; format: ADME, organism-based; details: in vivo
[13] = Cmax in Sprague-Dawley rat at 10 mg/kg, iv administered as single dose and measured upto 8 hrs by HPLC analysis; format: ADME, organism-based; set-up: time < 8 hrs, dose 10 mg/kg, route iv; details: in vivo
[14] = Half-life in Sprague-Dawley rat at 10 mg/kg, iv administered as single dose and measured upto 8 hrs by HPLC analysis; format: ADME, organism-based; details: in vivo
[15] = Clearance in Sprague-Dawley rat at 10 mg/kg, iv administered as single dose and measured upto 8 hrs by HPLC analysis; format: ADME, organism-based; details: in vivo
[16] = Apparent volume of distribution in Sprague-Dawley rat at 10 mg/kg, iv administered as single dose and measured upto 8 hrs by HPLC analysis; format: ADME, organism-based; details: in vivo
[17] = AUC (0 to 8 hrs) in Sprague-Dawley rat at 10 mg/kg, iv administered as single dose and measured upto 8 hrs by HPLC analysis; format: ADME, organism-based; set-up: time < 8 hrs, dose 10 mg/kg, route iv; details: in vivo
[18] = AUC (0 to infinity) in Sprague-Dawley rat at 10 mg/kg, iv administered as single dose and measured upto 8 hrs by HPLC analysis; format: ADME, organism-based; set-up: dose 10 mg/kg, time < 8 hrs, route iv; details: in vivo
[19] = Tmax in Sprague-Dawley rat at 50 mg/kg, po administered as single dose and measured upto 8 hrs by HPLC analysis; format: ADME, organism-based; details: in vivo
[20] = Cmax in Sprague-Dawley rat at 50 mg/kg, po administered as single dose and measured upto 8 hrs by HPLC analysis; format: ADME, organism-based; set-up: time < 8 hrs, dose 50 mg/kg, route po; details: in vivo
[21] = Half-life in Sprague-Dawley rat at 50 mg/kg, po administered as single dose and measured upto 8 hrs by HPLC analysis; format: ADME, organism-based; details: in vivo
[22] = Clearance in Sprague-Dawley rat at 50 mg/kg, po administered as single dose and measured upto 8 hrs by HPLC analysis; format: ADME, organism-based; details: in vivo
[23] = Apparent volume of distribution in Sprague-Dawley rat at 50 mg/kg, po administered as single dose and measured upto 8 hrs by HPLC analysis; format: ADME, organism-based; details: in vivo
[24] = AUC (0 to 8 hrs) in Sprague-Dawley rat at 50 mg/kg, po administered as single dose and measured upto 8 hrs by HPLC analysis; format: ADME, organism-based; set-up: dose 50 mg/kg, time < 8 hrs, route po; details: in vivo
[25] = AUC (0 to infinity) in Sprague-Dawley rat at 50 mg/kg, po administered as single dose and measured upto 8 hrs by HPLC analysis; format: ADME, organism-based; set-up: time < 8 hrs, dose 50 mg/kg, route po; details: in vivo
[26] = Oral bioavailability in Sprague-Dawley rat at 50 mg/kg administered as single dose and measured upto 8 hrs by HPLC analysis; format: ADME, organism-based; details: in vivo
[27] = Toxicity in mouse assessed as tolerance by measuring adverse events at 200 mg/kg, po administered for 7 days; format: organism-based; details: in vivo, 168 h, time 7 day
[28] = Toxicity in mouse assessed as effect on body weight at 200 mg/kg, po administered for 7 days; format: organism-based; details: in vivo, 168 h, time 7 day
Mus musculus [29] = experiment: (§1) Anti-inflammatory activity in L-arginine-induced acute pancreatitis kunming mouse model assessed as reversal of L-arginine induced pancreatic injury by measuring total score at 8 mg/kg, ip pre-treated with L-arginine for 14 hrs followed by compound treatment and measured after 10 hrs by histologic scoring analysis (reference value: 6.25 +/- 0.96); format: functional
Mus musculus [30] = experiment: as §1, with “3” for “8”; format: functional
[31] = Toxicity in LPS-induced C57BL/6 sepsis mouse model assessed as survival rate at 5 mg/kg, ip administered at 4 and 12 hrs post LPS-induction and measured after 28 hrs relative to control; format: organism-based; details: in vivo
[32] = Toxicity in LPS-induced C57BL/6 sepsis mouse model assessed as survival rate at 5 mg/kg, ip administered at 4 and 12 hrs post LPS-induction and measured after 35 hrs relative to control; format: organism-based; details: in vivo

## CCC(=O)N1CCCN(C(=O)C2CCCN(Cc3ccc(NC(=O)N[C@@]45C[C@@H]6C[C@@](C)(C[C@@](C)(C6)C4)C5)c(F)c3)C2)CC1 (some centres not stated)
[1]
  IC50: 0.14 nM
[2]
  IC50: 0.05 nM
[3]
  t1/2: 3.7 h
[4]
  t1/2: 3.15 h
[5]
  PPB: 72.57%
[6]
  Stability: 81.12 µg/mL
[7]
  Stability: 74.76 µg/mL
[8]
  Stability: 68.78 µg/mL
[9]
  Stability: 75.04 µg/mL
[10]
  Stability: 66.63 µg/mL
[11]
  Stability: 62.01 µg/mL
[12]
  Tmax: 1.8 min
[13]
  Cmax: 3.77 nM
[14]
  t1/2: 5.72 h
[15]
  CL: 4.83 mL/min/kg
[16]
  Vz: 2.39 L/kg
[17]
  AUC: 6.13 nM·h
[18]
  AUC: 11.47 nM·h
[19]
  Tmax: 0.25 h
[20]
  Cmax: 2.92 nM
[21]
  t1/2: 5.55 h
[22]
  CL: 28.3 mL/min/kg
[23]
  Vz: 13.12 L/kg
[24]
  AUC: 6.39 nM·h
[25]
  AUC: 10.15 nM·h
[26]
  F: 20.85%
[27]
  Activity: Non-Toxic
[28]
  Activity: Non-Toxic
Mus musculus [29]
  Activity: 3.5
Mus musculus [30]
  Activity: 4.25
[31]
  Activity: 37.5%
[32]
  Activity: 12.5%

## CC(O)CNC(=O)C1CCCN(Cc2ccc(NC(=O)N[C@@]34C[C@@H]5C[C@@](C)(C[C@@](C)(C5)C3)C4)c(F)c2)C1 (some centres not stated)
[1]
  IC50: 0.58 nM
[2]
  IC50: 0.28 nM

## C[C@]12C[C@@H]3C[C@](C)(C1)C[C@@](NC(=O)Nc1ccc(CN4CCCC(C(=O)NC(CO)CO)C4)cc1F)(C3)C2 (some centres not stated)
[1]
  IC50: 0.35 nM
[2]
  IC50: 0.28 nM

## C[C@]12C[C@@H]3C[C@](C)(C1)C[C@](NC(=O)Nc1ccc(C(=O)N4CCCC(C(=O)NCCO)C4)cc1F)(C3)C2 (some centres not stated)
[1]
  IC50: 0.15 nM
[2]
  IC50: 0.35 nM

## CCN(CC)C(=O)C1CCCN(Cc2ccc(NC(=O)N[C@@]34C[C@@H]5C[C@@](C)(C[C@@](C)(C5)C3)C4)c(F)c2)C1 (some centres not stated)
[1]
  IC50: 0.56 nM
[2]
  IC50: 0.35 nM

## CC(O)CNC(=O)C1CCC(NC(=O)c2ccc(NC(=O)N[C@@]34C[C@@H]5C[C@@](C)(C[C@@](C)(C5)C3)C4)c(F)c2)CC1 (some centres not stated)
[1]
  IC50: 0.44 nM
[2]
  IC50: 1.54 nM

Reference: ChEMBL document CHEMBL5380778, “Structure-Directed Discovery of Potent Soluble Epoxide Hydrolase Inhibitors for the Treatment of Inflammatory Diseases” (J Med Chem, 2023)
